# Test results reported in PubChem BioAssay AID179 (DTP/NCI, 2004).
# Active and inactive are the calls of the source.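 The calls were made as follows: active = compounds giving half or more protection of infected cells from virus-caused growth loss, again on retest; inactive = the rest.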
# Test system: CEM cells HIV-1 protection, formazan growth assay
# Assay: NCI AIDS Antiviral Assay
# Conditions: for IC50: measured here: growth of uninfected CEM cells
# Outline: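 Human CEM cells, uninfected and HIV-1-infected, exposed to five drug concentrations; growth measured by soluble formazan assay and scored as percent protection from infection, with protecting compounds retested.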
SMILES,EC50,IC50,outcome
COc1ccc(-c2cc(NC(=O)c3cnccn3)c(=O)oc2C)cc1,> 200 µM,170 µM,–
CCOC(=O)C1CN(C2CC2)CCC1=O (centres undefined),> 200 µM,> 200 µM,–
O=S1(=O)CC2(N3CCCC3)CCCCC21 (centres undefined),> 1100 µM,617 µM,–
CCCN(CCC)C(=S)N/N=C/c1ccccn1,> 2 µM,0.0126 µM,–
Cc1ccc(S(=O)(=O)Nc2nc3ccccc3c(=O)n2C2CCCCC2)cc1,> 200 µM,> 200 µM,–
O=C(CO)C1CC2C=CC1C2 (centres undefined),–,–,inactive
Cc1cc(O)ccc1C1(c2ccc(O)cc2C)OS(=O)(=O)c2ccccc21,–,–,inactive
O=[n+]1cnn([O-])c2ccccc21,> 200 µM,3.63 µM,–
Cn1cnc([N+](=O)[O-])c1Sc1nc(N)nc2c1ncn2C1OC(CO)C(O)C1O (centres undefined),> 200 µM,0.309 µM,–
COc1ccc(NC(=S)Nc2cc(C)cc(C)n2)cc1,> 200 µM,> 200 µM,–
CN1CCCCCCC1CO (centres undefined),–,–,inactive
Sc1cc2c(c3ccccc13)Nc1ccccc1S2,> 200 µM,123 µM,–
Cc1ccc(C2=Nc3cc(C)c(Cl)cc3S(=O)(=O)NN2)cc1,34.7 µM,87.1 µM,–
c1ccc2c(c1)OCCOCCOc1ccccc1OCCO2,> 295 µM,74.1 µM,–
Cc1nc(-n2[nH]c(C)c(CCO)c2=O)[nH]c(=O)c1CCO,–,–,inactive
C/C(N=NS(=O)(=O)c1c(C)cc(C)cc1C)=C1\C=CC=CN1O,–,–,inactive
Cn1c(=O)nc2n(-c3ccc(Cl)cc3)c3ccc(Cl)cc3nc-2c1=O,–,–,inactive
CC1C(=O)N2C(=O)C(C)C(C)C(=O)N2C(=O)C1C (centres undefined),> 53.7 µM,> 53.7 µM,–
COc1cc(Nc2nc3ccccc3nc2-c2cccs2)cc(OC)c1OC,> 25.1 µM,21.9 µM,–
COC(=O)C1=CC2OC13CC1CCC3(C2=O)C1(C)C (centres undefined),–,–,inactive
O=Cc1cccc(/C=N/Nc2nnc(N/N=C/c3cccc(C=O)c3)c3ccccc23)c1,> 200 µM,28.8 µM,–
CC1=NN(c2nc(N)nc(-c3sccc3N)n2)C(C)(C)C1,> 200 µM,77.6 µM,–
CCOC(=O)CNC1C(NC(C)=O)C(OC)OC2COC(c3ccccc3)OC21 (centres undefined),–,–,inactive
N#CCN(Cc1ccccc1)[C@@H]1CCC[C@]1(O)C#Cc1ccc2c(c1)OCO2,> 200 µM,20.4 µM,–
C/C(=C1/CCCC2(N=NCC2c2ccccc2)C1=O)c1ccccc1 (centres undefined),> 8.32 µM,> 8.32 µM,–

SMILES,EC50,IC50,outcome
C=CCCCC1(C)CCCCNC1=O (centres undefined),186 µM,> 200 µM,–
O=C(Nc1sccc1S(=O)(=O)c1ccccc1)c1cccnc1,> 200 µM,4.47 µM,–
O=C(O)c1ccccc1CC(Cc1ccc2c(c1)CCC2)C(=O)O (centres undefined),> 200 µM,> 200 µM,–
O=C(c1ccccc1)N1C2C3CC(OCc4ccccc4)(OCc4ccccc4)C(O3)C21 (centres undefined),> 17 µM,> 17 µM,–
CSc1nc(Cl)c2c(n1)Sc1nc3cc4c(cc3n1C2O)OCO4 (centres undefined),> 100 µM,0.525 µM,–
CCCCCOC(=O)C(=O)Nc1n[nH]nc1C(N)=O,> 200 µM,> 200 µM,–
CC1c2c(cc(=O)[nH]c2O)C(=O)N1C (centres undefined),> 245 µM,> 245 µM,–
C=C1CCC2CC1C(C(=O)c1c[nH]c3ccccc13)=NC2(C)C (centres undefined),> 407 µM,> 407 µM,–
Cc1ccc(NC(=S)/C(=C(\[O-])c2ccc([N+](=O)[O-])cc2)[n+]2ccc(C(C)C)cc2)c(C)c1,> 200 µM,158 µM,–
Nc1nc2c(ncn2C2C=CC(CO)C2)c(=O)[nH]1 (centres undefined),36.3 µM,324 µM,–
Oc1c(CN2CCOCC2)ccc2cccnc12,> 200 µM,3.72 µM,–
N#CC(C#N)=Cc1c[nH]c2ccccc12,–,–,inactive
Nc1ccn(C2CC(F)C(CO)O2)c(=O)n1 (centres undefined),0.148 µM,427 µM,–
CC(=O)NC1C(OCc2ccccc2)OC(COC(=O)CCCCCCCCCCNc2ccc([N+](=O)[O-])c3[nH]c4ccccc4c(=O)c23)C(O)C1OC(C)C(=O)NC(C)C(=O)NC(CCC(N)=O)C(=O)OCc1ccccc1 (centres undefined),> 166 µM,> 166 µM,–
Cc1ccc2nc(CN3CCCC(O)C3)cc(=O)n2c1 (centres undefined),> 200 µM,> 200 µM,–
CCN(CC)C(C)(C)C(=O)/C=C/c1ccc(C)cc1,–,–,inactive
Cc1cc(C)n(-c2nc(C)c(CCO)c(=O)[nH]2)n1,–,–,inactive
O=S(=O)(O)C(O)C(F)(F)C(F)(F)C(F)(F)F (centres undefined),> 200 µM,> 200 µM,–
CN(N)/N=N/c1nc[nH]c1C(N)=O,> 2 µM,1.45 µM,–
CCc1nn(S(=O)(=O)c2ccc(C)cc2)c2c1CS(=O)(=O)CC2,> 200 µM,> 200 µM,–
CCCCCCCCCCCCCCCCCCCCOC1OC(CO)C(O)C(O)C1O (centres undefined),> 3.63 µM,> 3.63 µM,–
Cc1cc(NS(=O)(=O)c2ccc(Nc3c4ccccc4nc4c(C(=O)Nc5ccc(S(=O)(=O)N=C(N)N)cc5)ccc(Cl)c34)cc2)no1,> 51.3 µM,> 51.3 µM,–
CC/C(Cl)=N\OC(=O)Nc1ccc(F)cc1F,> 20 µM,3.47 µM,–
COc1ccc(OC)c2c1-c1nnnn1CCC2(C)C,132 µM,> 200 µM,–
CCN=C(NC(=O)c1ccc(F)cc1)SCSC(=NCC)NC(=O)c1ccc(F)cc1,> 200 µM,> 200 µM,–
